This data set has as its target ATP-dependent translocase ABCB1 (Homo sapiens, UniProt P08183). Nature of the data set: TP_TRANSPORTER: increase in Rhodamine 123 intracellular accumulation (R123: 10 uM, Tamolarizine: 10 uM) in K562/DX cellsR cells, FACScan. To be noted: k562/dxr. Format: functional, cell-based.

ATP-dependent translocase ABCB1, sequence (P08183 whole entry): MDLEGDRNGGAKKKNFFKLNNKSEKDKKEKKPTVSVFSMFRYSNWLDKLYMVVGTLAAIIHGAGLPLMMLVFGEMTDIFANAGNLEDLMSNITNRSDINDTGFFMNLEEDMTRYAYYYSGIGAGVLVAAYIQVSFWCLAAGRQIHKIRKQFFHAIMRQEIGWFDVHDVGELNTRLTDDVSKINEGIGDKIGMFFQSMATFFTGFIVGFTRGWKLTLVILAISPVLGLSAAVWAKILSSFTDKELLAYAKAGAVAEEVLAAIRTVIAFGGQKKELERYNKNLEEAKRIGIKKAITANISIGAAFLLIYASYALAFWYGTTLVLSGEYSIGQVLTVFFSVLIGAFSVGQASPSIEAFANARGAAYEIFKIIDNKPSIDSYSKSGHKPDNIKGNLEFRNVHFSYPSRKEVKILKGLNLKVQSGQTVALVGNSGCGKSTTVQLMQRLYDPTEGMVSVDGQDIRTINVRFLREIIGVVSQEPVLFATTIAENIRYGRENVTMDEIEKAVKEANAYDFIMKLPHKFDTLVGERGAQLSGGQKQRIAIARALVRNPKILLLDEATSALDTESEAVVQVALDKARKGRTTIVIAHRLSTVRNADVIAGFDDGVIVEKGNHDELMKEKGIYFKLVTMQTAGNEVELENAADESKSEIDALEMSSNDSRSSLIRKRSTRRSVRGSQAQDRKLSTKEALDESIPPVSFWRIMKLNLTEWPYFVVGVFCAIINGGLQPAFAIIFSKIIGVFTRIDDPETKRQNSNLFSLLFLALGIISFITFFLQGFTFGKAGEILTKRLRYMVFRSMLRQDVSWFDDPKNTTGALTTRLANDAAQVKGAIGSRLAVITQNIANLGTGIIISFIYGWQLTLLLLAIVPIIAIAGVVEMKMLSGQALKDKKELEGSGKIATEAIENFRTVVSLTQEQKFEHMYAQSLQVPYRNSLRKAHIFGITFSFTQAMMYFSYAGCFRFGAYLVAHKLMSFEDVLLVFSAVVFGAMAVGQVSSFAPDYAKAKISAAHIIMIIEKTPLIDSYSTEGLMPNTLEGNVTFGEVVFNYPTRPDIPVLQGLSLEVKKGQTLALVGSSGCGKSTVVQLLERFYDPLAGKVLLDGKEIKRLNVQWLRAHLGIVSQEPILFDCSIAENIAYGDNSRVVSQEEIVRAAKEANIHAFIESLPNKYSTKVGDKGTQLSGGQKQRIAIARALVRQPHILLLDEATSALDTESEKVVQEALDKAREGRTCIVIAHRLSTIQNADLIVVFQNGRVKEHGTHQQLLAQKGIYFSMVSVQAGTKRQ

Consider `COc1ccc(C(O)CN2CCN(C(c3ccccc3)c3ccccc3)CC2)cc1OC` (stereo unspecified) [TAMOLARIZINE], for which the Activity entry is “inhibitor [+]”.

The record behind these values is ChEMBL document CHEMBL2074184, “Reversal of multidrug resistance in human leukemia K562 by tamolarizine, a novel calcium antagonist” (Jpn J Pharmacol, 2000).
